Test system: Endogenous Huntingtin Protein
Assay: Endogenous Huntingtin Protein Assay (ELISA-based MSD electrochemiluminescence)
Type: cell-based
Settings: Table 2; MSD plates coated with MW1 (expanded polyglutamine) or MAB2166 capture antibody; "inactive" = result above the detection limit of the assay
How it was run: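 MSD electrochemiluminescence sandwich ELISA: capture with MW1 (expanded polyQ) or MAB2166 at 1 µg/mL, samples incubated overnight at 4 °C. Detection by rabbit mAb #56565 then SULFO-TAG anti-rabbit antibody, each 0.25 µg/mL for 1 h at room temperature, read in buffer T on SI 6000 imager.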

Row | IC50 [µM] | Structure (SMILES)
1 | 0.0023 | Cc1cn2cc(-c3ccc(-c4cnc(N5CCN[C@@H](C(C)C)C5)nn4)c(O)c3)ncc2n1 [Cpd 141, 5-(2-methylimidazo[1,2-a]pyrazin-6-yl)-2-{3-[(3S)-3-(propan-2-yl)piperazin-1-yl]-1,2,4-triazin-6-yl}phenol]
2 | 0.173 | Oc1cc(-n2nccn2)cnc1-c1cnc(N2CCN[C@@H](C3CC3)C2)nn1 [Cpd 182, 2-{3-[(3S)-3-cyclopropylpiperazin-1-yl]-1,2,4-triazin-6-yl}-5-(2H-1,2,3-triazol-2-yl)pyridin-3-ol]
3 | 0.0095 | [2H]C([2H])([2H])n1cc(-c2ccc(-c3cnc(N4CCN[C@@H](C5CC5)C4)nn3)c(O)c2)cn1 [Cpd 9, 2-{3-[(3S)-3-cyclopropylpiperazin-1-yl]-1,2,4-triazin-6-yl}-5-[1-(^2H3)methyl-1H-pyrazol-4-yl]phenol]
4 | 0.0134 | C[C@@H]1CN(c2ncc(-c3ccc(-c4cn[nH]c4)cc3O)nn2)C[C@H](C2CC2)N1 [Cpd 225, 2-{3-[(3S,5R)-3-cyclopropyl-5-methylpiperazin-1-yl]-1,2,4-triazin-6-yl}-5-(1H-pyrazol-4-yl)phenol]
5 | 0.0076 | Cc1cn2cc(-c3ccc(-c4cnc(N5CCN[C@@H](C(C)C)C5)nn4)c(O)c3)cc(C)c2n1 [Cpd 131, 5-(2,8-dimethylimidazo[1,2-a]pyridin-6-yl)-2-{3-[(3S)-3-(propan-2-yl)piperazin-1-yl]-1,2,4-triazin-6-yl}phenol]
6 | 0.0366 | CC[C@H]1CN(c2ncc(-c3ccc(-c4cnc5nn(C)nc5c4)cc3O)nn2)C[C@@H](C)N1 [Cpd 214, 2-{3-[(3S,5R)-3-ethyl-5-methylpiperazin-1-yl]-1,2,4-triazin-6-yl]-5-(2-methyl-2H-[1,2,3]triazolo[4,5-b]pyridin-6-yl)phenol]
7 | 0.548 | Oc1cc(-c2cn[nH]c2)ccc1-c1cnc(N2CCNC3(CC3)C2)nn1 [Cpd 55, 2-[3-(4,7-diazaspiro[2.5]octan-7-yl)-1,2,4-triazin-6-yl]-5-(1H-pyrazol-4-yl)phenol]
8 | 0.975 | Oc1cc(-c2cc(N3CCC3)ncn2)ccc1-c1cnc(N2CCNC(C3CC3)C2)nn1 (racemic) [Cpd 210, 5-[6-(azetidin-1-yl)pyrimidin-4-yl]-2-{3-[(3RS)-3-cyclopropylpiperazin-1-yl]-1,2,4-triazin-6-yl}phenol]
9 | 0.0075 | Oc1cc(-c2cn[nH]c2)ccc1-c1cnc(N2CCN[C@@H](C3CC3)C2)nn1 [Cpd 137, 2-{3-[(3S)-3-cyclopropylpiperazin-1-yl]-1,2,4-triazin-6-yl}-5-(1H-pyrazol-4-yl)phenol]
10 | 0.0113 | COc1cc(-c2ccc(-c3cnc(N4C[C@@H](C)N[C@@H](C(C)C)C4)nn3)c(O)c2)ncn1 [Cpd 230, 5-(6-methoxypyrimidin-4-yl)-2-{3-[(3R,5S)-3-methyl-5-(propan-2-yl)piperazin-1-yl]-1,2,4-triazin-6-yl}phenol]
11 | 0.0112 | CC[C@H]1CN(c2ncc(-c3ccc(-c4c[nH]nc4F)cc3O)nn2)CCN1 [Cpd 123, 2-{3-[(3S)-3-ethylpiperazin-1-yl]-1,2,4-triazin-6-yl}-5-(3-fluoro-1H-pyrazol-4-yl)phenol]
12 | 0.0249 | [2H]C([2H])([2H])Oc1cc(-c2ccc(-c3cnc(N4CCN(C)C(C(C)(C)O)C4)nn3)c(O)c2)ncn1 (centres unmarked) [Cpd 26, 2-{3-[3-(2-hydroxypropan-2-yl)-4-methylpiperazin-1-yl]-1,2,4-triazin-6-yl}-5-{6-[(^2H3)methyloxy]pyrimidin-4-yl}phenol]
13 | 0.0215 | Oc1cc(-c2ncns2)ccc1-c1cnc(N2CCN[C@@H](C3CC3)C2)nn1 [Cpd 170, 2-{3-[(3S)-3-cyclopropylpiperazin-1-yl]-1,2,4-triazin-6-yl}-5-(1,2,4-thiadiazol-5-yl)phenol]
14 | 0.0285 | COC1(C2CN(c3ncc(-c4ccc(-c5cn[nH]c5)cc4O)nn3)CCN2)CC1 (centres unmarked) [Cpd 29, 2-{3-[3-(1-methoxycyclopropyl)piperazin-1-yl]-1,2,4-triazin-6-yl}-5-(1H-pyrazol-4-yl)phenol]

From patent US20230234942A1, “COMPOUNDS FOR TREATING HUNTINGTON'S DISEASE” (PTC Therapeutics, Inc., priority 2020, published 2023)
